From patent publication EP4552639A1, “COMPOUNDS FOR USE IN THE TREATMENT OF GASTROINTESTINAL STROMAL TUMOR (GIST)” (priority 2023, dated 2025)

Test system: KIT/PDGFRA-mutated cell lines
Assay: Cell viability assay (GR50)
Assay type: cell-based
Conditions: Figure 2
Method: Cell viability assays were performed as previously described (Grunewald, S., et al., Resistance to avapritinib in PDGFRA-driven GIST is caused by secondary mutations in the PDGFRA kinase domain. Cancer Discov, 2020). To generate the results presented in Figures 2 and 3, cells were plated at 4000-16000 cells/well in a 96-well plate and cultured overnight. Cells were then incubated in triplicates with media containing inhibitors or solvent control (DMSO) for 72 hours. The sulforhodamine B (SRB) assay was used according to the method of Skehan and colleagues (Skehan, P., et al., New colorimetric cytotoxicity assay for anticancer-drug screening. J.Natl.Cancer Inst., 1990. 82(13): p. 1107-1112).
To generate the results in for the KIT-driven cell lines (GIST-T1; T1-D816E, and T1-V654A) in Figures 1, 6, 7, and 8, cells were plated in triplicates at 400 cells/well in a 384-well plate with media containing inhibitors or solvent control (DMSO) and incubated for 72 hours. The Cell Titer Glo assay (Promega) was applied according to manufacturer's instructions. Absorption or luminescence was measured with a SPARK™ Plate reader (Tecan, Switzerland). One measurement of untreated cells at the at the start of treatment served as baseline for growth reduction (GR) calculations. […]

NC(=O)Nc1cc(-c2cccc(F)c2)sc1C(=O)N[C@H]1CCCNC1 [Preparation Example 3a.1, (S)-5-(3-fluorophenyl)-N-(piperidin-3-yl)-3-ureidothiophene-2-carboxamide]
cellular GR50 (concentration of a drug that reduces cell growth rate by half): 1 to 30 nM
